According to patent US20130253056A1, “Continuous Administration of Levodopa and/or Dopa Decarboxylase Inhibitors and Compositions for Same” (NEURODERM, LTD., priority 2009, published 2013):
≈ marks a conversion by molar mass, not a printed value. Where “and” joins values, the source holds several entries; their conditions need not be identical. Equal entries are not always repeated. Structures can show the parent of a compound that is named as a salt. Where two headings read alike, the source gives them in different places. Each block holds one compound with its values, some of them ahead of it.

Legend:
[1] = Continuous subcutaneous carbidopa with or without entacapone, levodopa PK in pigs; type: in vivo, female landrace×large white swine; conditions: continuous SC 2% carbidopa with 2.5% entacapone, oral LD/CD
Protocol: (§1) Plasma levels of L-dopa were measured by HPLC-ECD.

[2] = Solubility in PBS, flask method; type: physicochemical; conditions: for solubility: phosphate buffered saline (PBS), aqueous buffer, thermodynamic from solid, read-out: Solubility of LDEs in PBS
Protocol: The “flask method” was used to determine the solubility of the test material in phosphate buffered saline (PBS) according to the OECD Guidelines for the Testing of Chemicals. Briefly, the test material was dissolved in PBS at a temperature slightly above the test temperature. When saturation is achieved, the solution is cooled to the test temperature and the mass concentration of the LD alkyl ester in the solution is determined quantitatively by measuring the absorbance of the solution at 280 nm and comparing the readings to a calibration curve of the relevant alkyl ester dissolved in PBS.

[3] = for LD in Blood (ng/ml): LD-d3 / Recovery from Blood (%): LD-d3 / LD in Blood (ng/ml): LDiPE: whole blood
Protocol: (§2) LDEs [isopropyl ester (LDipE), propyl ester (LDpE), ethyl ester (LDeE)] and LD-d3, were spiked into whole blood, incubated for 15 or 60 minutes at 37° C., and the plasma or whole blood concentration of LD, LD-d3 and LDipE were quantified using HPLC analysis as shown in Table 6 and FIG. 13.

[4] = Intradermal delivery of LDE in pigs; type: in vivo
Protocol: LDEs were infused intradermally for 4 hours. […] Both whole blood and plasma samples were subjected to LD and LDE analysis.

[5] = Pig skin penetration of LDE by patch; type: in vivo, pigs; conditions: for LD P/WB (%) / LD blood cells (C) / Whole blood (WB) LD / Ratio C/P / Plasma (P) LD: 16 h after patch application; for LD blood cells (C) / Whole blood (WB) LD / Plasma (P) LD / LD concentration in the blood cell fraction higher as compared to LDbzE: pigs; for Ratio C/P: blood cell fraction LD / plasma LD; for LD concentration in the blood cell fraction higher as compared to LDbzE: patch
Protocol: Patch removal occurred at 24 h. […] Both whole blood and plasma were subjected to LD and 3-OMD analysis. […] LD formed in the RBC stay within the RBCs, and is further metabolized to 3-OMD, which is reallocated from the RBCs into the plasma.

[6] = cited from earlier work
[7] = system: mice; test: Skin sensitization, LLNA (local lymph node assay); conditions: for Median SI / SI / Ind. SI: LLNA mice; for Ind. SI: individual animals
Protocol: Sensitization was tested in mice using a LLNA (local lymph node assay) model for the detection of skin sensitization. […] In another LLNA study, LD Propyl and Benzyl Esters were tested in vehicle containing penetration enhancers.

[8] = Continuous subcutaneous administration of LD benzyl ester-HCl in pigs; type: in vivo; conditions: 15% aqueous solution pH 4.7, continuous SC 2 ml/24 h, oral carbidopa q8 h
Protocol: An aqueous solution of 15% LD benzyl ester-HCl, pH 4.7, was continuously administered subcutaneously via an insulin patch pump, 2 ml/24 h. Carbidopa was administered orally q8 h, starting 1 h prior to pump application.

[9] = Continuous subcutaneous benserazide, levodopa PK in pigs; type: in vivo, female landrace×large white swine; conditions: continuous subcutaneous benserazide with oral L-dopa/Carbidopa
Protocol: as §1

[10] = Oral levodopa arginine and carbidopa arginine salts, PK in pigs; type: in vivo, female landrace×large white swine; conditions: for absorption as compared to LD/CD (Sinemet): oral 255/45 mg LDs/CDs (corresponding to 100/25 LD/CD); for PK of plasma LD and CD: oral enteric coated LDs/CDs
Protocol: Pigs were orally administered with 255/45 mg LD-arginine salt (LDs)/CD-arginine salt (CDs) to 30-35 kg pigs in gelatin coated or non-coated capsules (corresponding to 100/25 LD/CD). Plasma levels of LD and CD were measured by HPLC-ECD.

[11] = Effect of pH on stability and hydrolysis of LDipE; type: physicochemical
Protocol: FIG. 19 indicates the effect of pH on stability and hydrolysis of LDipE after 10 days at 4 and 40° C.

[12] = in vitro
Protocol: as §2

[13] = target: T1, dopa-decarboxylases (DDC) (Sus scrofa, UniProt P80041); test: Inhibition of dopa-decarboxylase activity in vitro; type: biochemical; conditions: porcine liver homogenate
T1 construct: DDC enzymes were obtained from porcine liver homogenate; from tissue; host or cells: porcine liver homogenate
T1 sequence (P80041 1-486): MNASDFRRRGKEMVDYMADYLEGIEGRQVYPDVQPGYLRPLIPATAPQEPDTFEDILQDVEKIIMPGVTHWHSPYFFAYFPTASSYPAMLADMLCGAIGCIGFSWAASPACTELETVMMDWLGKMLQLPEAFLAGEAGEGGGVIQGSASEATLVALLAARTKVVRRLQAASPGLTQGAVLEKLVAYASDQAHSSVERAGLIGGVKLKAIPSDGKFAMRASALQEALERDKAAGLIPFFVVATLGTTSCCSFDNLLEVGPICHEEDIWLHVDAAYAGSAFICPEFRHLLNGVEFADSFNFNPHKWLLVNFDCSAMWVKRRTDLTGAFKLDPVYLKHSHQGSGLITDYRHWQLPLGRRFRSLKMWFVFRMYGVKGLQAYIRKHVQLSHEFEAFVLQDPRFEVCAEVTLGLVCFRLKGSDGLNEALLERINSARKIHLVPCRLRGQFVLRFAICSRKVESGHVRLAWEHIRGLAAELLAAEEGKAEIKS
Protocol: DDC enzymes were obtained from porcine liver homogenate and their activity was measured by comparing LD concentrations with and without carbidopa propyl ester (CDPE). Liver homogenate preparation was based on the method described by Umezawa et al; (J. Antib. 1975, 28(12):947-52).
All samples were separated on high pressure liquid chromatography columns and the identity and concentration of L-DOPA and dopamine were determined by HP UV-HPLC analysis at […].

[14] = Transdermal delivery through pig skin ex vivo, Franz cell delivery system; type: in vitro ADME, porcine; conditions: gel formulations, receiver samples 0, 16, 19 and 22 hours
Protocol: Gel formulations containing CDPE were prepared. Samples were collected from the receiver cell at time 0, 16, 19 and 22 hours after formulation application on to the skin. The amount of CD compounds in the receiver cell fluid was determined by a spectrophotometer at […].

[15] = T0 after spiking into whole blood
[16] = T15′ after spiking into whole blood

levels of 3-OMD [1]: effectively reduced
pharmacokinetics of levodopa [1]: did not further extend
SMILES: CCN(CC)C(=O)/C(C#N)=C/c1cc(O)c(O)c([N+](=O)[O-])c1 [entacapone]

SMILES: CCCCOC(=O)[C@@H](N)Cc1ccc(O)c(O)c1 [Butyl, levodopa butyl ester]
Solubility of LDEs in PBS [2]: 8.85 mg/mL

SMILES: [2H]c1c([2H])c(C[C@H](N)C(=O)O)c([2H])c(O)c1O [LD-d3]
LD in Plasma (ng/ml): LD-d3 [3, 15]: 533 ng/mL
Recovery from Plasma (%): LD-d3 [3, 15]: 67%
LD in Plasma (ng/ml): LD-d3 [3, 16]: 573 ng/mL
Recovery from Plasma (%): LD-d3 [3, 16]: 70% and 72%
LD in Blood (ng/ml): LD-d3 ([3]; T0 after spiking): 289 ng/mL
Recovery from Blood (%): LD-d3 ([3]; T0 after spiking): 72%
Recovery from Blood (%): LD-d3 ([3]; T15′ after spiking): 72%
LD in Blood (ng/ml): LD-d3 ([3]; T15′ after spiking, 37° C.): 288 ng/mL

SMILES: N[C@@H](Cc1ccc(O)c(O)c1)C(=O)OCc1ccccc1 [LD Benzyl Ester, levodopa benzyl ester]
hydrolysis to LD ([4]; intradermal infusion): hydrolyzed to LD faster than LD isopropyl ester
LD P/WB (%) [5]: 39.1%
LD P/WB (%) ([5]; listed as LDbzE): ~40%
LD blood cells (C) [5]: 2506 ng/mL
Whole blood (WB) LD [5]: 4115 ng/mL

solubility [2]: 0.031 mg/mL (≈ 0.1 mM)
SMILES: CCCCCCCCOC(=O)[C@@H](N)Cc1ccc(O)c(O)c1 [Octyl, levodopa octyl ester]

SMILES: N[C@@H](Cc1ccc(O)c(O)c1)C(=O)O [Levodopa, L-3,4-dihydroxyphenylalanine]
solubility in alcohol, chloroform or ether [6]: practically insoluble
solubility in water [6]: only slightly soluble in water

SMILES: Nc1ccc(N)cc1 [Positive Control, p-Phenylendiamine, reference compound]
Median SI ([7]; 1%): 9.7
SI ([7]; 1%): 10.1
Ind. SI ([7]; 1%): 8.82 and 9.33 and 12.15 and 10.00

SMILES: NC(Cc1ccc(O)c(O)c1)C(=O)OCc1ccccc1 (stereo not shown) [LD benzyl ester-HCl]
plasma concentrations of LD [8]: fluctuations of LD concentrations in the plasma coincided with oral carbidopa administration

SMILES: CCCOC(=O)[C@@H](N)Cc1ccc(O)c(O)c1 [LD Propyl Ester, levodopa propyl ester]
Median SI ([7]; 1M (24%) in DMF): 3.5
SI ([7]; 1M (24%) in DMF): 3.6
Ind. SI ([7]; 1M (24%) in DMF): 2.32 and 4.55 and 5.12 and 2.44
Ind. SI ([7]; 15% in Vehicle (penetration enhancers)): 36.42 and 7.70 and 38.60 and 3.53 and 31.68
Median SI ([7]; 15% in Vehicle): 31.7
SI ([7]; 15% in Vehicle): 23.6
change of SI when applied using the transdermal formulation ([7]; compared with DMF): significantly increased
Solubility of LDEs in PBS [2]: 11.238 mg/mL
LD P/WB (%) ([5]; listed as Propyl): 24.7%
LD P/WB (%) ([5]; listed as propyl): 25%
Ratio C/P [5]: 3.0
Ratio C/P ([5]; listed as LDpE): 3
LD blood cells (C) [5]: 4820 ng/mL
Plasma (P) LD [5]: 1584 ng/mL
Whole blood (WB) LD [5]: 6404 ng/mL
LD concentration in the blood cell fraction higher as compared to LDbzE [5]: 1.9 ×

SMILES: NC(CO)C(=O)NNCc1ccc(O)c(O)c1O (stereo not shown) [benserazide]
pharmacokinetic profile of LD [9]: extended the pharmacokinetic profile of LD

SMILES: CC(Cc1ccc(O)c(O)c1)(NN)C(=O)O.N=C(N)NCCCC(N)C(=O)O (stereo not shown) [CDs]
absorption as compared to LD/CD (Sinemet) [10]: absorbed more rapidly and efficiently
PK of plasma LD and CD [10]: extended the PK of plasma LD and CD

SMILES: CC(C)OC(=O)[C@@H](N)Cc1ccc(O)c(O)c1 [LD Isopropyl Ester, levodopa isopropyl ester]
levels of LDipE in the RBC fraction ([4]; during 4 hours intradermal infusion): Significant levels of LDipE were found in the RBC fraction
pH of the most stable formulation tested ([11]; after 10 days at 4° C.): 5.1
pH of the most stable formulations tested ([11]; after 10 days at 40° C., listed as LDipE): 3.7 and 4.8
Median SI ([7]; 1M (24%) in DMF): 3.5
SI ([7]; 1M (24%) in DMF): 4.2
Ind. SI ([7]; 1M (24%) in DMF): 3.63 and 7.11 and 2.69 and 3.33
solubility [2]: 17.3 mg/mL (≈ 72.2 mM)
recovery at 15 min [12]: 0%
recovery at 15 min, 400 ng/ml [12]: 0%
Recovery from Blood (%): LDiPE ([3]; 0 min): 45%
LD in Plasma (ng/ml): LDiPE ([3]; T0 after spiking of LDipE into whole blood): 0 ng/mL
LD in Plasma (ng/ml): LDiPE ([3]; T15′ after spiking of LDipE into whole blood): 0 ng/mL
LD in Blood (ng/ml): LDiPE ([3]; T0 after spiking of LDipE): 180 ng/mL
LD in Blood (ng/ml): LDiPE ([3]; T15′ after spiking of LDipE, 37° C.): 0 ng/mL

SMILES: CCCOC(=O)C(C)(Cc1ccc(O)c(O)c1)NN (stereo not shown) [CDPE, carbidopa propyl ester]
inhibition of decarboxylation of L-dopa to dopamine [13]: inhibits the decarboxylation of L-dopa to dopamine, in a similar manner to carbidopa and benserazide
transdermal delivery through full thickness porcine skin [14]: penetrates the skin in an enhancer-dose dependent manner

SMILES: CCOC(=O)[C@@H](N)Cc1ccc(O)c(O)c1 [LD Ethyl Ester, levodopa ethyl ester]
Median SI ([7]; 1M (24%) in DMF): 10.8
SI ([7]; 1M (24%) in DMF): 10.7
Ind. SI ([7]; 1M (24%) in DMF): 13.31 and 8.22 and 14.45 and 6.65
LD P/WB (%) ([5]; listed as Ethyl): 13.4%
LD P/WB (%) ([5]; listed as ethyl): 13%
Ratio C/P [5]: 6.5
LD blood cells (C) [5]: 6418 ng/mL
Plasma (P) LD [5]: 989 ng/mL
Whole blood (WB) LD [5]: 7407 ng/mL
LD concentration in the blood cell fraction higher as compared to LDbzE [5]: 2.5 ×

SMILES: N=C(N)NCCCC(N)C(=O)O.NC(Cc1ccc(O)c(O)c1)C(=O)O (stereo not shown) [LDs]
absorption as compared to LD/CD (Sinemet) [10]: absorbed more rapidly and efficiently
PK of plasma LD and CD [10]: extended the PK of plasma LD and CD
